Results published in patent US20030022821A1, “Bioactive peptides” (priority 1998, published 2003).
Converted amounts (≈) assume the structure as drawn. Read-outs that look alike come from different tables or passages of the source. Ends that are not written are not given here. Peptide text beside a SMILES is read from it. * marks the point of attachment. Acm = CC(=O)NC*

Legend:
[1] = test system: Staphylococcus aureus ATCC 25923; type: cell-based
Description: (§1) The bacterial strains used were: Escherichia coli ATCC 25922 and Staphylococcus aureus ATCC 25923. All strains were stored at −70° C. The bacteria were grown in 2% Bacto Peptone water (Difco 1807-17-4). All tests were performed with bacteria in mid-logarithmic growth phase. Determination of the minimum inhibitory concentration (MIC) of the peptides for bacterial strains were performed in 1% Bacto Peptone water. A standard microdilution technique with an inoculum of 2×10^6 CFU/ml was used. All assays were performed in triplets. Since the peptides are positively charged and therefore could adhere to the plastic wells, we controlled the actual concentration of the peptides in the solution by HPLC. There was no difference between the concentration of the peptides before or after adding the solution to the plastic wells.

[2] = test system: Escherichia coli ATCC 25922; type: cell-based
Description: as §1

| Compound | MIC S. aureus ([1]; ATCC 25923) | MIC E. coli ([2]; ATCC 25922) | MIC S. aureus ([1]; Table 4, unit assumed) | MIC E. coli ([2]; Table 4) | further results |
| --- | --- | --- | --- | --- | --- |
| CSCC[C@H](NC(=O)[C@H](CCC(=O)O)NC(=O)[C@H](Cc1c[nH]c2ccccc12)NC(=O)[C@H](CCC(N)=O)NC(=O)[C@H](Cc1c[nH]c2ccccc12)NC(=O)[C@H](CCCNC(=N)N)NC(=O)[C@H](CC(C)C)NC(=O)[C@H](CSCNC(C)=O)NC(=O)[C@H](CCCCN)NC(=O)[C@@H](N)CCC(=O)O)C(=O)N[C@@H](CCCNC(=N)N)C(=O)N[C@@H](CCCCN)C(=O)N[C@@H](Cc1ccc(O)cc1)C(=O)NCC(=O)NCC(=O)O [LFM W8 Y13] (H-EKC(Acm)LRWQWEMRKYGG-OH; N-terminus and C-terminus assumed) | >1000 µg/mL | >1000 µg/mL |  |  |  |
| CC[C@H](C)[C@H](NC(=O)[C@H](CCCCN)NC(=O)[C@H](Cc1c[nH]c2ccccc12)NC(=O)[C@H](CCC(N)=O)NC(=O)[C@H](Cc1c[nH]c2ccccc12)NC(=O)[C@H](CCC(N)=O)NC(=O)[C@H](CCCNC(=N)N)NC(=O)[C@H](CSCNC(C)=O)NC(=O)[C@H](CCCCN)NC(=O)[C@@H](N)CO)C(=O)N[C@@H](CCCNC(=N)N)C(=O)N[C@@H](CCCNC(=N)N)C(=O)N[C@H](C(=O)N[C@@H](CC(N)=O)C(=O)N1CCC[C@H]1C(=O)O)[C@@H](C)O [LFPW8] (H-SKC(Acm)RQWQWKIRRTNP-OH; N-terminus assumed) |  |  | > 1000 µg/mL | 500 µg/mL (≈ 243 µM) |  |
| LFH Pmc: human lactoferricin with Pmc attached to the only available tryptophan |  |  |  |  | MIC S. aureus ([1]; Table 5, unit assumed): 50 µg/mL; MIC E. coli ([2]; Table 5): 25 µg/mL |
| RRWQWRMKKLGA-OH [LFB 20-31] |  |  |  |  | MIC S. aureus ATCC 25923 ([1]; ATCC 25923): 200 µg/mL; MIC S. aureus ATCC 25923 ([1]; Table 1, value in brackets): 124 µM; MIC S. aureus ([1]; Table 11): 200 µg/mL; MIC E. coli ATCC 25922 ([2]; ATCC 25922): 100 µg/mL; MIC E. coli ATCC 25922 ([2]; Table 1, value in brackets): 62 µM; MIC E. coli ([2]; Table 11): 100 µg/mL |
| SKCRQWQSKIRRTNP [Native LFP, porcine region corresponding to LFB 17-31] |  |  | > 1000 µg/mL | > 1000 µg/mL |  |
| TKCFQWQRNMRKVRG [Native LFH] |  |  | > 1000 µg/mL | > 1000 µg/mL |  |

Further lines, with some results ahead:

| MIC S. aureus ([1]; ATCC 25923) | MIC E. coli ([2]; ATCC 25922) | Compound | MIC S. aureus ([1]; Table 4, unit assumed) | MIC E. coli ([2]; Table 4) | further results |
| --- | --- | --- | --- | --- | --- |
| 50 µg/mL (≈ 23.9 µM) | 25 µg/mL (≈ 11.9 µM) | CSCC[C@H](NC(=O)[C@H](CCCNC(=N)N)NC(=O)[C@H](Cc1c[nH]c2ccccc12)NC(=O)[C@H](CCC(N)=O)NC(=O)[C@H](Cc1c[nH]c2ccccc12)NC(=O)[C@H](CCCNC(=N)N)NC(=O)[C@H](CC(C)C)NC(=O)[C@H](CSCNC(C)=O)NC(=O)[C@H](CCCCN)NC(=O)[C@@H](N)CCCNC(=N)N)C(=O)N[C@@H](CCCNC(=N)N)C(=O)N[C@@H](CCCCN)C(=O)N[C@@H](Cc1ccc(O)cc1)C(=O)NCC(=O)NCC(=O)O [LFM R1, 9 W8 Y13] (H-RKC(Acm)LRWQWRMRKYGG-OH; N-terminus and C-terminus assumed) |  |  |  |
| 1000 µg/mL (≈ 483 µM) | 150 µg/mL (≈ 72.5 µM) | CSCC[C@H](NC(=O)[C@H](CCCNC(=N)N)NC(=O)[C@H](Cc1c[nH]c2ccccc12)NC(=O)[C@H](CCC(N)=O)NC(=O)[C@H](Cc1c[nH]c2ccccc12)NC(=O)[C@H](CCCNC(=N)N)NC(=O)[C@H](CC(C)C)NC(=O)[C@H](CSCNC(C)=O)NC(=O)[C@H](CCCCN)NC(=O)[C@@H](N)CCC(=O)O)C(=O)N[C@@H](CCCNC(=N)N)C(=O)N[C@@H](CCCCN)C(=O)N[C@@H](Cc1ccc(O)cc1)C(=O)NCC(=O)NCC(=O)O [LFM R9 W8 Y13] (H-EKC(Acm)LRWQWRMRKYGG-OH; N-terminus and C-terminus assumed) |  |  |  |
| 2.5 µg/mL | 5 µg/mL | RRWYRWWR-NH2 [LFM 17-24 R1,2, 8 W3, 7Y4NH2] |  |  |  |
